# Reference: PMC4467156, “A new chemical inhibitor of angiogenesis and tumorigenesis that targets the VEGF signaling pathway upstream of Ras” (Oncotarget, 2015)
# Assays:
# PKCα = PKCα (Homo sapiens, UniProt P17252); experiment: In vitro kinase assay PKCα; format: biochemical; settings: concentrations up to 50 μM
# Description: (§1) We first wondered whether COB223 required to be internalized to exert its biological effect. For this, we synthesized a covalent complex between BSA and COB223 and purified it. […] In vitro kinase assays were performed with a panel of purified protein-kinases involved in mitogenic signaling, including VEGFR2, FGFR1, FGFR2, PDGFRß, Met, Raf, MEK1, ERK1, ERK2, PKCα, PKCβI, PKCβII, PKCζ as indicated in Table 2. […] We then analyzed the effect of COB223 on VEGF-induced phosphorylations of VEGFR2, MEK and ERK1/2 (Figure 9). […] (Figure 9A, 9B). […] It was also specific of the p42/p44 MAP kinase pathway as activation of p38 MAP kinase phosphorylation in HUVEC cells by VEGF or serum was unaffected by COB223 (data not shown). The activation of src phosphorylation by VEGF in HUVECs was also unaffected by COB223 (data not shown).
# MEK1 = MEK1 (Homo sapiens, UniProt Q02750); experiment: In vitro kinase assay MEK1; format: biochemical; settings: concentrations up to 50 μM
# Chain of MEK1 (Q02750 whole entry, species assumed): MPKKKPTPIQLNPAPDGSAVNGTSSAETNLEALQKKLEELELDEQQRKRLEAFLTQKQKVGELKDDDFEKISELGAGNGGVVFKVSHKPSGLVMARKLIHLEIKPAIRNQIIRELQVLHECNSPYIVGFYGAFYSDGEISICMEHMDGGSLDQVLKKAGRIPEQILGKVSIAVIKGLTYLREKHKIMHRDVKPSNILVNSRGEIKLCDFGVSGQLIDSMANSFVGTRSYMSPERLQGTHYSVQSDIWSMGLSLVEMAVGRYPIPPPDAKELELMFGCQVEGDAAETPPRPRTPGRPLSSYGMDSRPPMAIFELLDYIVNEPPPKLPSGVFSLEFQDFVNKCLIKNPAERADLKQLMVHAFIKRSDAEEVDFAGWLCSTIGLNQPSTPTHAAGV
# Description: as §1
# ERK2 = ERK2 (Homo sapiens, UniProt P28482); experiment: In vitro kinase assay ERK2; format: biochemical; settings: concentrations up to 50 μM
# Chain of ERK2 (P28482 whole entry, species assumed): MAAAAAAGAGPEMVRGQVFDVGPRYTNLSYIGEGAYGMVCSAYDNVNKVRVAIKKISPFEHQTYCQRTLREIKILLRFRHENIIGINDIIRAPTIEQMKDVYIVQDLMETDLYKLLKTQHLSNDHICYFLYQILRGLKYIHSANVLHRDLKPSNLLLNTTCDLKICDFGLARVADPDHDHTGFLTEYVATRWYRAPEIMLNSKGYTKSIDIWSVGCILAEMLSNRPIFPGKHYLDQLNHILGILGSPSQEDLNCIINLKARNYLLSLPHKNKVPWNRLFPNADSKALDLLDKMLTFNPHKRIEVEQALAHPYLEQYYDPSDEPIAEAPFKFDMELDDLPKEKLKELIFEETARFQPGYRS
# Description: as §1
# ERK1/2 phosphorylation = ERK1/2 phosphorylation in 3T3 fibroblasts; format: cell-based; settings: data not shown
# 3T3 cells = experiment: Cell viability WST-1, 3T3; format: cell-based; settings: confluent 3T3, 24 h at 37°C
# Description: (§2) Once they had reached confluency, cells were kept for 24 hours in medium supplemented with 0.5% FCS (LLC/2 and 3T3 cells) or 2.5% FCS (HUVEC and HMVEC-d cells), in the presence of COB223 at different concentrations. WST-1 assay (Roche Diagnostic, Meylan, France) was then performed according to the manufacturer's instructions.
# LLC/2 tumor = experiment: Mouse LLC/2 tumor model; format: in vivo
# Description: We chose this model because of its rapid growth in syngenic mice and its strong dependence on angiogenesis. LLC/2 cells (10^6 in 50 μL medium) were subcutaneously injected into the right flank of […] mice. Seven days after tumor inoculation, mice were given an intraperitoneal (i.p.) injection of either solvent (1.7% DMSO) or COB223 every other day. Tumor size was measured with calipers, and the volume was calculated according to the formula (L*w^2)/2 where L and […] stand for length and width respectively. All mice were killed 21 days after tumor grafting.
# Tumors collected after animal sacrifice were split into two parts and fixed either in 4% paraformaldehyde (v/v) or in formalin fixative for 24 h at 4°C and embedded in paraffin and then cut into 7 μm sections. Sections were stained using specific antibodies and the avidin–biotin immunoperoxidase detection method. Endogenous peroxidase activity was quenched by pretreatment with 3% (v/v) hydrogen peroxide in methanol for 20 min. For endothelial immunohistochemistry detection, CD31 antibody (MEC13.3, BD Pharmingen) was incubated for 2 h at room temperature. The tissue sections were subsequently washed three times with PBS and incubated with biotinylated rabbit anti-rat IgG (1:250 dilution in blocking solution; Sigma-Aldrich, Saint-Quentin Fallavier, France) for 1 h at room temperature. After three PBS washes, the slides were incubated with an avidin: biotin complex (Vectastain ABC kit; Vector Laboratories, Burlingame, CA) for 45 minutes. After a final PBS wash, the immunoreactive proteins were visualized after the addition of 3,3′-diaminobenzidine (Dako, Trappes, France) for 2 min and then counterstained with hematoxylin. Control sections were treated without primary antibody.
# VEGFR2 phosphorylation = experiment: Western blot, VEGFR2 autophosphorylation in HUVEC; format: cell-based, human; settings: 10 ng/mL VEGF-A 15 min, 25 μM COB223
# Description: Figure 9 Effect of COB223 on growth factor-induced VEGF-R2, MEK and ERK phosphorylations (A) Serum-starved HUVEC cells were incubated for 15 min in the presence of either 10 ng/mL VEGF-A or 20 ng/mL FGF-2 and in the absence or the presence of 25 μM COB223. The phosphorylations of VEGFR2 on tyrosine 1175 or tyrosine 1214, of MEK and ERK1/2 were then analyzed by Western blot analysis of the cell lysates as described in Material and Methods. Western blots for total VEGFR2, MEK and ERK1/2 were used as loading controls. The blots shown in Figure 9A were obtained in one representative experiment. (B) The hybridization signals observed in 5 similar but independent experiments were quantitated and the ratios between phospho-VEGFR2(Y1175) or (Y1214) and VEGFR2 signals were normalized to the value observed in the absence of COB223. (C) The hybridization signals observed in 5 similar but independent experiments were quantitated and the ratios between phospho-ERK1/2 and ERK1/2 and between phospho-MEK and MEK were normalized to the values observed in the absence of COB223. Additional experiments performed with 10% fetal calf serum (FCS) as a mitogen were included in this analysis. * : p < 0.05; ** : p < 0.01
# Serum-starved HUVEC cells were incubated for 15 min in the presence of either 10 ng/mL VEGF-A or 20 ng/mL FGF-2 and in the absence or the presence of indicated concentration of COB223. […]
# LLC/2 cells [1] = experiment: Cell viability WST-1, LLC/2; format: cell-based; settings: confluent LLC/2, 24 h at 37°C
# Description: as §2
# LLC/2 cells [2] = experiment: 3H-thymidine incorporation, LLC/2; format: cell-based; settings: LLC/2 lung carcinoma cells; less efficiently than on endothelial cells
# Description: Cells were treated with molecules in complete medium. After 22 h, 1 μCi per well H^3 thymidine was added for 2 hours. Cells are then fixed by 10% trichloroacetic acid and harvested with 0.2N NaOH, 1% SDS. Radioactivity was measured in a beta counter.
# [3] = non-necrotic part of treated tumors
compound,measurement,setting,value
"CN(C)c1cccc2c(S(=O)(=O)NCCCN3CCN(CCCNC(=O)OC(C)(C)C)CC3)cccc12 [COB223, tert-Butyl 3-(4-(3-(5-(dimethylamino)naphthalene-1-sulfonamido)propyl)piperazin-1-yl) propylcarbamate]",kinase inhibition,PKCα,None of them was inhibited
same,kinase inhibition,MEK1,None of them was inhibited
same,kinase inhibition,ERK2,None of them was inhibited
same,FGF2-induced or serum-induced phosphorylation of ERK1/2,ERK1/2 phosphorylation,did not affect
same,cytotoxic concentrations,3T3 cells,> 50 µM
same,tumors with necrotic areas larger than 15% of their surface,LLC/2 tumor; COB223-treated tumors (untreated 20%),60%
same,density of the microvessels (CD31),LLC/2 tumor; [3],significant decrease
same,size (luminal surface) of the microvessels (CD31),LLC/2 tumor; [3],significant decrease
same,number of phospho-ERK1/2 and phospho-histone H3 positive cells,LLC/2 tumor; tumor sections,significantly decreased
same,autophosphorylation of VEGFR2 on tyrosine 1175,VEGFR2 phosphorylation,did not alter
same,autophosphorylation of VEGFR2 on tyrosine 1214,VEGFR2 phosphorylation,did not alter
same,cytotoxic concentrations,LLC/2 cells [1],> 50 µM
same,effect on cell proliferation,LLC/2 cells [2],inhibited
